Laboratory results published in US11208412B2 (DAEGU-GYEONGBUK MEDICAL INNOVATION FOUNDATION, priority 2017, dated 2021).

What was measured:
Assay in all cases: Kinase selectivity, DiscoverX scanMAX Kinase assay panel (% control)
Assay type in all cases: binding
[1] = molecular target: T1, kinases of the scanMAX Kinase assay panel (Homo sapiens, UniProt Q8NG66); conditions: NEK11; 1 uM
T1 construct: purchased DiscoverX Co. (contract measurement) scanMAX Kinase assay panel
T1 sequence (Q8NG66 1-645): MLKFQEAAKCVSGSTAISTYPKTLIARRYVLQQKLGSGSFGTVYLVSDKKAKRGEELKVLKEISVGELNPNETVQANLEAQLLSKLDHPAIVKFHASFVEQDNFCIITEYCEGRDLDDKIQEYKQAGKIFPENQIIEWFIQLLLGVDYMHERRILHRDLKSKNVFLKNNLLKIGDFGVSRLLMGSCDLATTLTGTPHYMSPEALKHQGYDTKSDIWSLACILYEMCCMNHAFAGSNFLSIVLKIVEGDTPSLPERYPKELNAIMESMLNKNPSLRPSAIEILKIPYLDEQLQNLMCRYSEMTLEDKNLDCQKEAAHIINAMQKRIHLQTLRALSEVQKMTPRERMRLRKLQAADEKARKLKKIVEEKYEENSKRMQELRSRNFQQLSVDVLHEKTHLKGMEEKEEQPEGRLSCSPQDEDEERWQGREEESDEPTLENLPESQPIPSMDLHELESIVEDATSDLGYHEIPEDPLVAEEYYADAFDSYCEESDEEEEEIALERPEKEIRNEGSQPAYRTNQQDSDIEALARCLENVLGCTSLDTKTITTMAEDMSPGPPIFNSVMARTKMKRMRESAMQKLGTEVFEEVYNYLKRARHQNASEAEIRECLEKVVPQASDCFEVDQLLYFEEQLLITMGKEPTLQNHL
Experimental: (§1) The following experiment was performed to evaluate the activity of the compounds of the present invention to inhibit many enzymes.
(§2) Particularly, the compounds of Examples 8, 64 and 104 were selected among all of those compounds of the invention. DiscoverX Co. was asked to measure the enzyme (kinase) selectivity, and the experiment was performed using scanMAX™ Kinase assay panel.
(§3) Wherein, the concentration of the drug treated to each enzyme was 1 uM in DMSO and the control percentage (% control) was determined by the following Equation 1. (example compound−positive control)/(negative control−positive control)×100 [Equation 1]
(§4) Herein, the positive control indicates the compound showing the % control of 0%, and the negative control indicates DMSO showing the % control of 100%. The enzyme selectivity in the present invention is defined as follows: When the % control for each enzyme is less than 35% (<35%), it is judged that the compound has the activity to the corresponding enzyme.

[2] = molecular target: T2, kinases of the scanMAX Kinase assay panel (Homo sapiens, UniProt P11802); conditions: 1 uM
T2 construct: purchased DiscoverX Co. (contract measurement) scanMAX Kinase assay panel
T2 sequence (P11802 whole entry): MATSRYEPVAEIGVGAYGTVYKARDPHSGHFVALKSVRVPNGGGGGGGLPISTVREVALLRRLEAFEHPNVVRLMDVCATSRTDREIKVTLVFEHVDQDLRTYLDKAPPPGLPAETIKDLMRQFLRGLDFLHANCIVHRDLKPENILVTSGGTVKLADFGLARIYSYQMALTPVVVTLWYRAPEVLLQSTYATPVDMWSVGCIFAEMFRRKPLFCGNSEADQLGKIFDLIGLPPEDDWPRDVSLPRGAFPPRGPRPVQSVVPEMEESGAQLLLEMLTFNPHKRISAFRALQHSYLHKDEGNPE
Experimental: as §1, §2, §3, §4

[3] = molecular target: T3, kinases of the scanMAX Kinase assay panel (Homo sapiens, UniProt O15111); conditions: IKK-alpha; 1 uM
T3 construct: purchased DiscoverX Co. (contract measurement) scanMAX Kinase assay panel
T3 sequence (O15111 1-745): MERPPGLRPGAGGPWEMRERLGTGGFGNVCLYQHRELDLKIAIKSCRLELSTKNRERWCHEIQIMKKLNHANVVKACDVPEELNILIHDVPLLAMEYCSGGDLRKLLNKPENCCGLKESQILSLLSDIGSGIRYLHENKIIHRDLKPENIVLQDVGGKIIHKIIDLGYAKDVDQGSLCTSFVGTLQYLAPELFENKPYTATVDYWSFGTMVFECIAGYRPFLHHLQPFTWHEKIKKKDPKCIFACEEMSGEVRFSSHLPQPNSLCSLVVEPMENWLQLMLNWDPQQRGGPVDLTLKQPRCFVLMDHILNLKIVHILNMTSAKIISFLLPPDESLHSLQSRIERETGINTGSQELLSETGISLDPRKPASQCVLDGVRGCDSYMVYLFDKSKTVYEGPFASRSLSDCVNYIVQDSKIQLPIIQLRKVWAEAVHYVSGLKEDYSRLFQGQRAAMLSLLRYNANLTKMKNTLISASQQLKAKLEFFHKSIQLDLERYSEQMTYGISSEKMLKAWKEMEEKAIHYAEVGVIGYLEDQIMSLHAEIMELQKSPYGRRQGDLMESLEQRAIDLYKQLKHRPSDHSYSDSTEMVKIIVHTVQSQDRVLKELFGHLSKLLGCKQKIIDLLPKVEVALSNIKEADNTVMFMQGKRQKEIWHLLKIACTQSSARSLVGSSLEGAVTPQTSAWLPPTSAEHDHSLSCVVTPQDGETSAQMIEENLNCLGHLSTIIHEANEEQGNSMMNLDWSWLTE
Experimental: as §1, §2, §3, §4

[4] = molecular target: T4, kinases of the scanMAX Kinase assay panel (Homo sapiens, UniProt Q6DT37); conditions: DMPK2; 1 uM
T4 construct: purchased DiscoverX Co. (contract measurement) scanMAX Kinase assay panel
T4 sequence (Q6DT37 whole entry): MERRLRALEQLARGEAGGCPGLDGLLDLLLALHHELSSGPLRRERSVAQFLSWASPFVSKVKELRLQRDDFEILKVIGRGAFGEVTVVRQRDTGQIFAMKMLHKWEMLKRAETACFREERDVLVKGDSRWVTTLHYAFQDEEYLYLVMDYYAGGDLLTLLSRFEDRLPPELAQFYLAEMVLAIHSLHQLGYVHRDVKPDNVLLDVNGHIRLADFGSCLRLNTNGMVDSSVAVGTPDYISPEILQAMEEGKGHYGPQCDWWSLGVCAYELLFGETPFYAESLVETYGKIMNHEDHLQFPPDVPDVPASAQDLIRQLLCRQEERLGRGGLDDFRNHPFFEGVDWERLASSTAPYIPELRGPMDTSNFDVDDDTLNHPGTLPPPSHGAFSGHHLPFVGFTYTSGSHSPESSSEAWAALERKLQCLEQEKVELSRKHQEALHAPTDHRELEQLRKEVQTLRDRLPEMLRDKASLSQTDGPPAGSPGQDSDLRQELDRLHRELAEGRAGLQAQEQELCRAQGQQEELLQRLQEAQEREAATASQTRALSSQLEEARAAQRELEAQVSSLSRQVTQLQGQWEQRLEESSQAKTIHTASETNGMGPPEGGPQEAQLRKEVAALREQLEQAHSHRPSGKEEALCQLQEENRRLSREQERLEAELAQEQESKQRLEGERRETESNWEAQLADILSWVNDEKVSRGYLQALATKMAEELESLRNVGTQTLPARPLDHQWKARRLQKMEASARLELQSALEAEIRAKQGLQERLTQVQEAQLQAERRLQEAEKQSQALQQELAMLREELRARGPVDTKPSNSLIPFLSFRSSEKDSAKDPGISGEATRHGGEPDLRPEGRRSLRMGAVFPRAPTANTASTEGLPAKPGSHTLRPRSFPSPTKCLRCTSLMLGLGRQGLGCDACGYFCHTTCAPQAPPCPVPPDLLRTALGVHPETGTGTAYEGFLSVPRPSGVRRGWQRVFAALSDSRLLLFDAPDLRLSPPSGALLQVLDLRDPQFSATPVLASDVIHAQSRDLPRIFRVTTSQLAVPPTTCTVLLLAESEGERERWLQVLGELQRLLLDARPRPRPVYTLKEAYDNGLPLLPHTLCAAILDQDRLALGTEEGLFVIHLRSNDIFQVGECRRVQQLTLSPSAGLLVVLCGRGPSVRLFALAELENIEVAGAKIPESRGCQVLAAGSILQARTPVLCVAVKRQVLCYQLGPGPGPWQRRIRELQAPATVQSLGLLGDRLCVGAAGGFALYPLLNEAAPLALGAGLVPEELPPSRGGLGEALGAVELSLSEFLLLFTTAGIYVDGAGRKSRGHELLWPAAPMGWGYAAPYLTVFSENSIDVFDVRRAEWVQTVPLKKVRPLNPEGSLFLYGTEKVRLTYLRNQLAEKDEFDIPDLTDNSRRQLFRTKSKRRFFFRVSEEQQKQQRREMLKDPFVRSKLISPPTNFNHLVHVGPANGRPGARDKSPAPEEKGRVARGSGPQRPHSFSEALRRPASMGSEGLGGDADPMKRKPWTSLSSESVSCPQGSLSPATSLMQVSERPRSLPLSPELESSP
Experimental: as §1, §2, §3, §4

[5] = molecular target: T5, kinases of the scanMAX Kinase assay panel (Homo sapiens, UniProt Q96PN8); conditions: kinase TSSK3; 1 uM in DMSO
T5 construct: purchased DiscoverX Co. (contract measurement) scanMAX Kinase assay panel
T5 sequence (Q96PN8 1-268): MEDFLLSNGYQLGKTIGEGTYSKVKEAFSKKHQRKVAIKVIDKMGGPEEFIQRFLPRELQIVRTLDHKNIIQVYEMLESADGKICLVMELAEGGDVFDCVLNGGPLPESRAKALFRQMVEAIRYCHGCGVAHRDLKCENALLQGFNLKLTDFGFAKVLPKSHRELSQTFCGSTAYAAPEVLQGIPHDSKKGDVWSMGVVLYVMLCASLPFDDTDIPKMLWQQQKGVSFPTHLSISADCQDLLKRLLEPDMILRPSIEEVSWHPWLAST
Experimental: as §1, §2, §3, §4

[6] = molecular target: T6, kinases of the scanMAX Kinase assay panel (Homo sapiens, UniProt P32298); conditions: GRK4; 1 uM
T6 construct: purchased DiscoverX Co. (contract measurement) scanMAX Kinase assay panel
T6 sequence (P32298 whole entry): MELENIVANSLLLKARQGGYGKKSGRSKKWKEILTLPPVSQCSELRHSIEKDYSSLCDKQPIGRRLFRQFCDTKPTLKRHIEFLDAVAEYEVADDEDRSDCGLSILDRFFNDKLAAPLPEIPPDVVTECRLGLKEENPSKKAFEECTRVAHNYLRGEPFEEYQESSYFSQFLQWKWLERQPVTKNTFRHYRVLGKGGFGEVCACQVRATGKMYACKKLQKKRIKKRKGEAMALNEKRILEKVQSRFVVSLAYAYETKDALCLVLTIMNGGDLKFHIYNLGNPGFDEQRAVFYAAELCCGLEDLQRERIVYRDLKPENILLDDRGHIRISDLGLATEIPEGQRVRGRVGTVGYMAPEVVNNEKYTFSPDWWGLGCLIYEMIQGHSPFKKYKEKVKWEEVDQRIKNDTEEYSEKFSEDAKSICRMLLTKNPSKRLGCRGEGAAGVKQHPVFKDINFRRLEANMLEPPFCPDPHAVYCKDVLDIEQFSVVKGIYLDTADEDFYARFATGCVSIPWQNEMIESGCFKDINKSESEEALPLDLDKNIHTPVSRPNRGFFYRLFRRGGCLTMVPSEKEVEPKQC
Experimental: as §1, §2, §3, §4

[7] = molecular target: T7, kinases of the scanMAX Kinase assay panel (Homo sapiens, UniProt Q8TD08); conditions: ERK8; 1 uM
T7 construct: purchased DiscoverX Co. (contract measurement) scanMAX Kinase assay panel
T7 sequence (Q8TD08 1-544): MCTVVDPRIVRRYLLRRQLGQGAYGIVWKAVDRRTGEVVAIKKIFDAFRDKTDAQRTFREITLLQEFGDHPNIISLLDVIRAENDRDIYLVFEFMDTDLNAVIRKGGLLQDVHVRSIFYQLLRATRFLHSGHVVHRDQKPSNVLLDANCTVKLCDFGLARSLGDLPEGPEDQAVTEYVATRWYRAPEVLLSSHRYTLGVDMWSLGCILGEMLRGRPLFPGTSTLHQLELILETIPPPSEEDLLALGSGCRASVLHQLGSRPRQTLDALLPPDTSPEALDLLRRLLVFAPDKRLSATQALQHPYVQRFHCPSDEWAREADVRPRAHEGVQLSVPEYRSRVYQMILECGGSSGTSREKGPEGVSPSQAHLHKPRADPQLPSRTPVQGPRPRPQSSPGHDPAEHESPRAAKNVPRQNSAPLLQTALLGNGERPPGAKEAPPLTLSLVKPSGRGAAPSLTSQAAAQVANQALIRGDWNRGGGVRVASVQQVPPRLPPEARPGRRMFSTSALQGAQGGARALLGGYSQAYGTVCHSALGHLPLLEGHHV
Experimental: as §1, §2, §3, §4

Row | Structure (SMILES) | remaining binding at 1 µM [1] [%] | remaining binding at 1 µM ([2]; CDK4-cyclinD1) [%] | remaining binding at 1 µM ([2]; CDK4-cyclinD3) [%] | remaining binding at 1 µM ([2]; CDK4) [%] | remaining binding at 1 µM [3] [%] | remaining binding at 1 µM [4] [%] | remaining binding at 1 µM [5] [%] | remaining binding at 1 µM [6] [%] | remaining binding at 1 µM [7] [%]
1 | CC1(Nc2nc(Nc3cnn([C@H]4CCN(C5COC5)C[C@@H]4F)c3Cl)nc3[nH]cc(C#N)c23)CC1 [Example 52, 2-((5-chloro-1-((3S,4S)-3-fluoro-1-(oxetane-3-yl)piperidine-4-yl)-1H-pyrazole-4-yl)amino)((1-methylcyclopropyl)amino)-7H-pyrrolo[2,3-d]pyrimidine-5-carbonitrile] | 100 | 59 | 100 | 100 | 3.4 | 81 | 72 | 1.6 | 62
2 | CNc1nc(Nc2ccc(C(=O)N3CCOCC3)cc2OC)nc2[nH]cc(C#N)c12 [Example 1, 2-((2-methoxy-4-(morpholine-4-carbonyl)phenyl)amino)-4-(methylamino)-7H-pyrrolo[2,3-d]pyrimidine-5-carbonitrile] | 70 | 74 | 96 | 61 | 57 | 90 | 74 | 92 | 100
3 | CCNc1nc(Nc2ccc(C(=O)N3CCC(N4CCOCC4)CC3)cc2OC)nc2[nH]cc(C(F)(F)F)c12 [Example 104, (4-((4-(ethylamino)-5-(trifluoromethyl)-7H-pyrrolo[2,3-d]pyrimidine-2-yl)amino)-3-methoxyphenyl)(4-morpholinopiperidine-1-yl)methanone] | 100 | 55 | 53 | 100 | 93 | 100 | 100 | 100 | 100
